In publication PMC4999309, “Structures of TorsinA and its disease-mutant complexed with an activator reveal the molecular basis for primary dystonia” (eLife, 2016):

Molecular target: T1, TorsinAEQ-LULL1 (TorsinA-ATP-LULL1) (Homo sapiens, UniProt O14656+Q8NFQ8, O14656:E171Q)
T1 construct: gene TOR1A; TorsinA 51-332 (E171Q ATP trap), N-terminal 10xHis-7xArg tag cut by 3C; untagged luminal domain LULL1 233-470; co-expressed in E. coli with alpaca nanobody VHH-BS2 (crystallisation chaperone); heterodimer plus nanobody
Test: X-ray crystal structure, […] Å
Type: binding
Settings: 2 mM ATP, pH 6.5; crystallised with nanobody VHH-BS2; ATP in Walker A/B nucleotide site with LULL1 Arg449 finger

## Nc1ncnc2c1ncn2[C@@H]1O[C@H](COP(=O)(O)OP(=O)(O)OP(=O)(O)O)[C@@H](O)[C@H]1O [ATP]
  X-ray crystal structure, 1.40 Å: An ATP molecule is bound in the manner characteristic of P-loop NTPases
